For test [1], the target named is T1, Sodium- and chloride-dependent GABA transporter 1 (Mus musculus, UniProt P31648). As to the kind of experiment: Inhibition of mouse GAT1 expressed in HEK293 cells assessed as reduction in [3H]GABA uptake preincubated for 25 mins followed by [3H]GABA addition and measured after 4 mins by microbeta liquid scintillation counting method. Format: cell-based.
In a further test the target is T2, GABA transporter 4 (Mus musculus, UniProt P31650).
T2 sequence (P31650 whole entry): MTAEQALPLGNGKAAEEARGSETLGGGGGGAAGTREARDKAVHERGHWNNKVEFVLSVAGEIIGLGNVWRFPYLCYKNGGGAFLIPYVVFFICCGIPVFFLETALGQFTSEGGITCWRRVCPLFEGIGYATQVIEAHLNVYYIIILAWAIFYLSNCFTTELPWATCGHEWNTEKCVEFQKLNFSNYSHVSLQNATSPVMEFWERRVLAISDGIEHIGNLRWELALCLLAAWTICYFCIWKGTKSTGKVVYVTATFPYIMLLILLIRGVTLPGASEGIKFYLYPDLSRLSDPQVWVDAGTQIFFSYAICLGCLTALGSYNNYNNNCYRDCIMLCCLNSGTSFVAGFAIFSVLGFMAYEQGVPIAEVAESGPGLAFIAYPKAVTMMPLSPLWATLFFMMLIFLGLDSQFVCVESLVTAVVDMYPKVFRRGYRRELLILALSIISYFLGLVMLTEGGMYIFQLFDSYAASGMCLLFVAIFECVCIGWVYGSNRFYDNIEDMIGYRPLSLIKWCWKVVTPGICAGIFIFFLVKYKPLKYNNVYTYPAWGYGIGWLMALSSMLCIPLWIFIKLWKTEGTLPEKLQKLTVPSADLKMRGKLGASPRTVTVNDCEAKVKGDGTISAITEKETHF
As to the kind of experiment: Inhibition of mouse GAT4 expressed in HEK293 cells assessed as reduction in [3H]GABA uptake preincubated for 25 mins followed by [3H]GABA addition and measured after 4 mins by microbeta liquid scintillation counting method. The class given is cell-based.

In test [2] the target is T1, Sodium- and chloride-dependent GABA transporter 1. As to the kind of experiment: Displacement of NO711 from mouse GAT1 expressed in stable HEK293 cell membranes preincubated for 10 mins followed by NO711 addition and measured after 40 mins by LC-ESI-MS/MS analysis.
The test system of test [3] is Sodium- and chloride-dependent betaine transporter (Mus musculus). As to the kind of experiment: Inhibition of mouse GAT2 expressed in HEK293 cells assessed as remaining [3H]GABA uptake at 100 uM preincubated for 25 mins followed by [3H]GABA addition and measured after 10 mins by liquid scintillation counting method relative to control.
Test [4] concerns Sodium- and chloride-dependent GABA transporter 2 (Mus musculus). As to the kind of experiment: Inhibition of mouse GAT3 expressed in HEK293 cells assessed as remaining [3H]GABA uptake at 100 uM preincubated for 25 mins followed by [3H]GABA addition and measured after 4 mins by liquid scintillation counting method relative to control.
The target in test [5] is T1, Sodium- and chloride-dependent GABA transporter 1. As to the kind of experiment: Displacement of NO711 from mouse GAT1 expressed in stable HEK293 cells assessed as remaining specific NO711 binding level preincubated at 100 uM for 10 mins followed by NO711 addition and measured after 40 mins by LC-ESI-MS/MS analysis. Format: cell-based. The following applies: read-out: Activity.

Test [6] concerns the target Sodium- and chloride-dependent GABA transporter 2 (Mus musculus). As to the kind of experiment: Inhibition of mouse GAT3 expressed in HEK293 cells assessed as reduction in [3H]GABA uptake preincubated for 25 mins followed by [3H]GABA addition and measured after 4 mins by microbeta liquid scintillation counting method.
Test [7] deals with Sodium- and chloride-dependent betaine transporter (Mus musculus). As to the kind of experiment: Inhibition of mouse GAT2 expressed in HEK293 cells assessed as reduction in [3H]GABA uptake preincubated for 25 mins followed by [3H]GABA addition and measured after 10 mins by microbeta liquid scintillation counting method.
Test [8] deals with T3, GABA transporter 4 (Mus musculus) (UniProt P31650).
T3 sequence (whole entry): T2 sequence (P31650 whole entry)
As to the kind of experiment: Inhibition of mouse GAT4 expressed in HEK293 cells assessed as remaining [3H]GABA uptake at 100 uM preincubated for 25 mins followed by [3H]GABA addition and measured after 4 mins by liquid scintillation counting method relative to control. Format: cell-based.

Test [9] has as its target T1, Sodium- and chloride-dependent GABA transporter 1. As to the kind of experiment: Inhibition of mouse GAT1 expressed in HEK293 cells assessed as remaining [3H]GABA uptake at 100 uM preincubated for 25 mins followed by [3H]GABA addition and measured after 4 mins by liquid scintillation counting method relative to control. Format: cell-based. Conditions: read-out: Activity.

The record followed here is ChEMBL document CHEMBL4411343, “Synthesis and biological evaluation of novel N-substituted nipecotic acid derivatives with a cis-alkene spacer as GABA uptake inhibitors” (Bioorg Med Chem, 2019).

As to `O=C(O)C1CCCN(CC/C=C\C(c2ccccc2)(c2ccccc2)c2ccccc2)C1` (racemic), the results for the half-inhibitory concentration (IC50) (in [1]; on GABA transporter 4) were 40.7 µM and 17.4 µM, respectively. The affinity in test [2], expressed as Ki, was 7.41 µM.
For `COc1ccc(C(/C=C\CCN2CCCC(C(=O)O)C2)(c2ccc(OC)cc2)c2ccc(OC)cc2)cc1` (racemic), the results for the IC50 (in test [1]; at GABA transporter 4) were 30.9 µM and 16.2 µM, respectively. Further, the activity at 100 µM in [3] worked out at 63%. For the same molecule, the affinity in test [2] corresponds to a Ki of 23.4 µM.
For `COc1ccc(C(C/C=C\CN2CCCC(C(=O)O)C2)(c2ccc(OC)cc2)c2ccc(OC)cc2)cc1` (racemic), the IC50 (as a rule, the concentration needed to halve the response being measured) in test [1] is 41.7 µM; at GABA transporter 4 it was 61.7 µM. Besides, the activity at 100 µM in test [3] worked out at 52%. Besides, the inhibition constant (Ki) (usually a measure of affinity in units of concentration, obtained from inhibition or displacement) in [2] is 24 µM.
`COc1ccc(C(/C=C\CN2CCCC(C(=O)O)C2)(c2ccc(OC)cc2)c2ccsc2)cc1` (racemic): the IC50 in [1] was 79.4 µM; on GABA transporter 4, 33.1 µM. Also, the results for the activity at 100 µM in test [4] and in test [5] were 49% and 62%, respectively.
As to `COc1ccc(CC(/C=C\CN2CCCC(C(=O)O)C2)(c2ccc(OC)cc2)c2ccc(OC)cc2)cc1` (racemic), the IC50 in test [1] is 74.1 µM; at GABA transporter 4 it was 57.5 µM. Also, the activity at 100 µM in test [3] amounted to 65%. For the same molecule, the affinity in test [2], expressed as Ki, was 25.7 µM.
On to `COc1ccc(C(/C=C\CN2CCCC(C(=O)O)C2)(Cc2ccccc2)c2ccc(OC)cc2)cc1` (racemic), for which the IC50 in test [1] was 38 µM; at GABA transporter 4 it was 63.1 µM. This molecule gave a Ki in [2] of 41.7 µM. Besides, the activity at 100 µM in [4] was 57%.
`COc1ccc(C(C#CCN2CCCC(C(=O)O)C2)(c2ccc(OC)cc2)c2ccc(OC)cc2)cc1` (racemic): the values for the negative logarithm of the IC50 (pIC50) in test [6] and in test [7] were 4.61 and 4.36, respectively.
As to `COc1ccc(C(/C=C\CN2CCCC(C(=O)O)C2)(c2ccc(OC)cc2)c2nccs2)cc1` (racemic), the activity at 100 µM in test [3] is 67%; in test [4], 78%; in [9] it was 69%; in [5], 78%. Moreover, in [8], the Activity was 83%.
Take `COc1ccc(C(/C=C\CN2CCCC(C(=O)O)C2)(c2ccc(OC)cc2)c2ccc3c(c2)OCO3)cc1` (racemic): the results for the half-inhibitory concentration (IC50) (in test [1]; at GABA transporter 4) were 95.5 µM and 10 µM, respectively. This molecule also had an inhibition constant (Ki) in test [2] of 53.7 µM.
For `COc1ccc(C(O)(/C=C\CN2CCCC(C(=O)O)C2)c2ccc(OC)cc2)cc1` (racemic), the activity at 100 µM in test [3] is 85%; in test [4] it was 97%; in test [9], 81%; in test [5] it was 53%. In addition, the Activity in [8] came to 80%.
`O=C(O)C1CCCN(C/C=C\CC(c2ccccc2)(c2ccccc2)c2ccccc2)C1` (racemic): the figures for the IC50 (in [1]; on GABA transporter 4) were 1 µM and 15.1 µM, respectively. The activity at 100 µM in test [3] stood at 70%; in [4], 56%. The Ki in [2] is 0.513 µM.
Molecule `COc1ccc(C(/C=C\CN2CCCC(C(=O)O)C2)(c2ccc(OC)cc2)c2ccc(OC)cc2)cc1` (racemic) had a Ki in test [2] of 17.8 µM.
`COc1ccc(C(/C=C\CN2CCCC(C(=O)O)C2)c2ccc(OC)cc2)cc1` (racemic): the activity at 100 µM in [3] worked out at 68%; in [4], 72%; in test [9], 62%. For the same molecule, on GABA transporter 4, the IC50 is 49 µM. Further, the Ki in [2] was 26.3 µM.
